The record followed here is patent US4014909A, “Esters of 21-thiol steroids” (priority 1974, dated 1977).

One series relates to thymus. The series is classed as in vivo, rat (Wistar, young male). Here is the method: The thymolytic effects have been examined by means of a test, the principle of which is as follows:
The repeated administration of a gluco-corticoid having a systemic activity causes an involution of the defence system of the organism, of which two organs belong to the reticulo-endothelial system, the spleen and the thymus, this latter being the most sensitive to this action, especially with young animals. The thymic involution is estimated by weighing.
The various products were injected daily by the oral or the sub-cutaneous route for four days, to young male rats of Wistar-strain, the initial weight of which was between 45 and 55 grams, distributed at random by groups of ten.
The products under study were administered at a volume of 0.2 ml. per animal for both methods, in suspension in:
Carboxy-methyl-cellulose at 5 % for sub-cutaneous injection;
Gum arabic at 5 % for the oral route.
The animals of the reference groups received the same volume of the corresponding vehicle.
Ninety-six hours after the first administration, the animals were killed, the thymus glands being taken and weighed immediately.
(§1) For each animal, the weight of the thymus has been brought to 100 grams of body weight. The thymolytic activity of the products under study was then expressed as a percentage of regression of the thymus with respect to the animals of the reference group and the ED50 of each product tested was estimated by transferring the percentage inhibition obtained for each dose on semi-logarithmic paper.

The next series deals with granuloma / thymus. As to the kind of experiment: Ratio of the local anti-inflammatory activity to the thymolytic activity. The class given is in vivo, rat (Wistar). Conditions: for ED50 anti-proliferative activity / ED50 thymolytic activity (sub-cutaneous route): thymolytic activity determined by sub-cutaneous route; for ED50 anti-proliferative activity / ED50 thymolytic activity (oral route): thymolytic activity determined by the oral route. As to the method: The DE50 were calculated by transferring the results on to semi-logarithmic paper.
as §1
The ratio is indicated in Tables VII, VIII and IX which follow: […]

Series [1] has as its system exudate in carrageenan air pouch. As to the kind of experiment: Anti-exudative action, carrageenan air pouch. The series is classed as in vivo, rat (Wistar, male). Conditions: injected into the air pouch 96 h after carrageenan; exudate measured 96 h later. As to the method: The anti-exudative activity was brought into evidence by means of a test, the principle of which is as follows.
This test consists of creating, under the dorsal skin of the rat an air pouch in which an irritant product is injected. An inflammatory reaction appears rapidly and is shown by the accumulation of liquid in the pouch of air.
The introduction of an anti-inflammatory product into the air pouch reduced, more or less completely, the accumulation of exudate.
This study was carried out with male rats of the Wistar strain, the initial weight of which was between 160 and 180 grams, following the technique described by M. Fukuhara and S. Tsurufuji (Bio-Chem. Pharmac. 18, 475-484, 1969). Each lot comprised 10 animals distributed at random.
Twenty-four hours before the beginning of the test, each animal received a sub-cutaneous injection of 6 ml. of air in the dorsal region, previously shaved. […]
Ninety-six hours after this last injection, the animals were killed and the exudate contained in the pouch was collected through a small incision made with a scalpel, and its volume was measured in a test tube.
The difference in volume of the exudate between the animals treated and the reference lot was expressed as a percentage inhibition.

The next series has as its system hepatic tissue. As to the kind of experiment: Action on the glucidic metabolism: hepatic glycogen after 96 hours treatment. The class given is in vivo, rat (Wistar, male). The following applies: 18 h water diet. The source says:
The action on the glucidic metabolism was investigated by means of a test, the principle of which is as follows:
Gluco-corticoid reduce the peripheral needs of the organism in glucose, they also increase the synthesis by the liver of glycogen (neo-glycogenesis). Their action on the glucidic metabolism is thus indicated:
(1) By an increase of glycemia;
(2) by a glycogenic overload on the liver and especially by the persistence of the hepatic shock of glycogen in the food-deprived animal, and treated with a glyco-corticoid by comparison with the non-treated animal.
For this study, Wistar male rats were used; the initial weight of which was between 150 and 160 grams, distributed at random in groups of 10.
The products studied were administered by the oral route in suspension in 5 % gum arabic, under a volume of 0.5 ml. per 100 grams, the animals of the reference group receiving the same volume of vehicles under the same condition.
The treatments were carried out daily for four days, a fifth administration being given seven hours before killing the animals, which took place 96 hours after the first administration.
Immediately after killing the animals, a sample of the hepatic tissue was taken from the central lobe and weighed. Immediately afterwards, it was subjected to digestion in 30 % potassium hydroxide in a boiling water-bath for 20 minutes. The glycogen contained in the digestate was then dosed, following the technique described by R. O. Stafford, L. E. Barnes and Coll. (Proc. Soc. Exp. Med. 39/3, 371-374, 1955).
The content of glycogen in the liver samples has been expressed in grams of glycogen per 100 grams of hepatic tissue.
Table XIII which follows indicates the content of glycogen in the liver with the reference animals and the treated animals for 96 hours after a water diet of 18 hours (see procedure (e)).

Where two headings read alike, the source gives them in different places.

On to `CC(C)(C)C(=O)SCC(=O)[C@@]1(O)CC[C@H]2[C@@H]3CCC4=CC(=O)CC[C@]4(C)[C@H]3[C@@H](O)C[C@@]21C` [JO 1016, Dihydroxy-11β, 17α thio-21 dioxo-3,20 pregnene-4-21 pivalate], for which the “ED50 thymolytic activity, oral route” value in the series on thymus (oral, total dose administered during four days per rat of about 50 g) was 400 mg. Moreover, the “ED50 thymolytic activity, sub-cutaneous route” value with thymus (sub-cutaneous, total dose administered during four days per rat of about 50 g) is over 120 mg. For the same compound, the “ED50 anti-proliferative activity / ED50 thymolytic activity (sub-cutaneous route)” value in the series on granuloma / thymus amounted to 0.0008. Further, the “ED50 anti-proliferative activity / ED50 thymolytic activity (oral route)” value in the series with granuloma / thymus is recorded as under 0.003. In series [1], this compound showed an ED50 anti-exudatory activity of 1.5 mg. Also, the entries for the “Glycogen in hepatic tissue” value in the series on hepatic tissue (25 mg/kg oral), in the series with hepatic tissue (50 mg/kg oral) and with hepatic tissue (100 mg/kg oral) were 0.25 g/100 g, 0.39 g/100 g and 0.42 g/100 g, respectively.

For the compound `CC(=O)OCC(=O)[C@@]1(O)CC[C@H]2[C@@H]3CCC4=CC(=O)CC[C@]4(C)[C@H]3[C@@H](O)C[C@@]21C` [Hydrocortisone (acetate), Hydrocortisone acetate, reference compound], the “ED50 thymolytic activity, sub-cutaneous route” value with thymus (rat, in vivo, 5760 min) stood at 0.68 mg. The “ED50 thymolytic activity, oral route” value in the series with thymus (rat, in vivo, po, 5760 min) came out at 4 mg. Besides, in the series on granuloma / thymus, the “ED50 anti-proliferative activity / ED50 thymolytic activity (sub-cutaneous route)” value came out at 1.2. The “ED50 anti-proliferative activity / ED50 thymolytic activity (oral route)” value in the series on granuloma / thymus was 0.25. For the same compound, in series [1], the ED50 anti-exudatory activity is 1,5 mg. Besides, the “Glycogen in hepatic tissue” value amounted to 0.19 g/100 g in the series on hepatic tissue (2 mg/kg oral); 0.45 g/100 g with hepatic tissue (5 mg/kg oral); 0.46 g/100 g in the series with hepatic tissue (10 mg/kg oral); 1.26 g/100 g in the series on hepatic tissue (20 mg/kg oral); 2.49 g/100 g in the series on hepatic tissue (50 mg/kg oral).
